Earlier results in patent US20170157075A1, “Edible Compositions and Methods for Promoting Alpha Brain Waves” (priority 2015, published 2017).

Experiments:
[1] = estimated
[2] = 300 mg per day; controlled trial
[3] = daily 20 mg for every 10 pounds of body weight; controlled study
[4] = 300 mg per day
[5] = single 100 mg nighttime dose; placebo-controlled study
[6] = 600-900 mg daily; twelve weeks
[7] = not given; remark: listed apart in the source
[8] = not given; remark: listed apart in the source

SMILES	share of an oral dose that ends up producing serotonin in the body [1] [%]	effect on symptoms of fibromyalgia [2]	share of subjects with migraine attacks reduced in frequency, severity and duration (400 mg per day, well-controlled trial) [%]	reduction of migraine headache attacks versus prescription medications (600 mg per day, adults, two double blind studies)	response of children with migraines and sleep problems [3]	effect in depression [4]	effect on duration and depth of sleep [5]	average weight loss [6] [lbs]	side effects or interactions reported during the studies ([7]; cited 5-HTP studies, 100-900 mg daily)	effect of high doses on brain dopamine ([7]; high doses, over time (Hinz et al. 2011, 2012))	doses with no toxicity reports ([7]; humans, Examine.com summary) [mg/kg bodyweight]	therapeutic effect on cluster of mood symptoms versus placebo ([8]; 6 grams daily for 17 days, three consecutive cycles, 37 patients treated, 34 placebo)	withdrawals due to drug side effects ([8]; 6 grams daily, 71 women include placebo group)
N[C@@H](Cc1c[nH]c2ccc(O)cc12)C(=O)O [5-HTP, 5-hydroxytryptophan]	70	effective in reducing many symptoms of fibromyalgia	90	as effective as prescription medications	responded well	often effective	sufficient to improve the duration and depth of sleep	11	mild gastrointestinal disturbances in some people, mild nausea, heartburn, flatulence, feelings of fullness, and rumbling sensations	can lead over time to depletion of brain dopamine	≤ 50	–	–
N[C@@H](Cc1c[nH]c2ccccc12)C(=O)O [L-tryptophan]	–	–	–	–	–	–	–	–	–	–	–	significant (p=0.004) therapeutic effect	1 of 71 women
